This is an account of results in patent publication EP3443956A1, “A COMPOUND INCREASING ENDOCANNABINOIDS CONCENTRATION IN A SUBJECT FOR USE FOR PREVENTING AND/OR TREATING A SOCIAL BEHAVIOR DISORDER” (INSTITUT NATIONAL DE LA SANTE ET DE LA RECHERCHE MEDICALE …, priority 2017, dated 2019).

Where two headings read alike, the source gives them in different places.

Data set [1] relates to eCB-LTD of excitatory synapses onto layer 5 mPFC pyramidal neurons. Briefly: Field potential recordings of eCB-LTD in mPFC slices. On the set-up: species or system rat. The protocol:
(§1) Treatment was performed daily with the CB1 R receptor agonist WIN55,212-2 (0.5 mg/kg) or Delta9-Tetrahydrocannabinol (THC, 5 mg/kg) or their respective vehicles from GD 5 to GD 20. WIN55,212-2 was suspended in 5% DMSO, 5% cremophor and saline, and injected s.c. at a volume of 1 ml/kg. Control dams (Sham group) received a similar volume injection of vehicle solution. THC was suspended in 5% Ethanol, 5% cremophor and saline, and injected s.c. at a volume of 1 ml/kg.
(§2) Pups were weaned at 21 days of age. For behavioral and electrophysiological experiments male and female rats were tested at adulthood (postnatal day 90-120).
Adult male and female rats were anesthetized with isoflurane and killed as previously described (Martin and Manzoni, 2014). The brain was sliced (300 µm) in the coronal plane with a vibratome (Integraslice, Campden Instruments) in a sucrose-based solution at 4°C (in mm as follows: 87 NaCl, 75 sucrose, 25 glucose, 2.5 KCI, 4 MgCl2, 0.5 CaCl2, 23 NaHCO3 and 1.25 NaH2PO4). Immediately after cutting, slices containing the medial prefrontal cortex (PFC) or accumbens were stored for 1 h at 32°C in a low calcium ACSF that contained (in mm) as follows: 130 NaCl, 11 glucose, 2.5 KCI, 2.4 MgCl2, 1.2 CaCl2, 23 NaHCO3, 1.2 NaH2PO4, and were equilibrated with 95% 02/5% CO2 and then at room temperature until the time of recording.
Field potential recordings were made in coronal slices containing the mPFC or the accumbens as previously described (Robbe et al., 2002). During the recording, slices were placed in the recording chamber and superfused at 2 ml/min with either low Ca2+ ACSF for mPFC or normal ACSF for the accumbens. All experiments were done at 32°C or room temperature for mPFC and accumbens, respectively. The superfusion medium contained picrotoxin (100 µM) to block GABA Type A (GABA-A) receptors. All drugs were added at the final concentration to the superfusion medium.
For extracellular field experiments, the recording pipette was filled with ACSF.
Both fEPSP area and amplitude were analyzed. Stimulation was performed with a glass electrode filled with ACSF and the stimulus intensity was adjusted ∼60% of maximal intensity after performing an input-output curve (baseline EPSC amplitudes ranged between 50 and 150 pA). Stimulation frequency was set at 0.1 Hz.
The magnitude of plasticity was calculated 38-40 min after induction as percentage of baseline responses. Statistical analysis of data was performed with Prism (GraphPad Software) using tests indicated in the main text after outlier subtraction. All values are given as mean ± SEM, and statistical significance was set at p < 0.05.

The subject of a further data set is adult rats. The data set is classed as in vivo, rat. The protocol:
Wistar female rats (Charles River, France) weighing 250-280 g were housed at constant room temperature (20 ± 1°C) and humidity (60%), and exposed to a light cycle of 12 h/day (08:00 a.m. to 08:00 p.m.), with food and water available ad libitum. For mating, pairs of females were placed with single male rats in the late afternoon. Vaginal smears were taken the following morning at 09:00 a.m. The day on which sperm was present was designated as the day 0 of gestation (GD 0).
as §1, §2
The test was performed in a sound attenuated chamber under dim light conditions. The testing arena consisted of a Plexiglas cage measuring 45 × 45 cm, with 2 cm of wood shavings covering the floor. Social behavior was assessed as previously described (Trezza et al., 2012).
Briefly, adult rats were individually habituated to the test cage for 5 min (adult rats) on each of the 2 days prior to testing. Before testing, adult animals were socially isolated for 24 h, respectively, to enhance their social motivation and thus facilitate the expression of social behaviors during testing. Drug treatments were counterbalanced so that cage mates were allocated to different treatment groups. […] Behavior was assessed per pair of animals and analyzed by a trained observer who was unaware of treatment condition using the Ethovision XT video tracking software (Noldus, Wageningen, The Netherlands).
The test consisted of placing two similarly treated animals into the test cage for 10 min (adult rats). In rats, a bout of social play behavior starts with one rat soliciting ('pouncing') another animal, by attempting to nose or rub the nape of its neck. The animal that is pounced upon can respond in different ways. If the animal that is pounced upon fully rotates to its dorsal surface, 'pinning' is the result, i.e., one animal lying with its dorsal surface on the floor with the other animal standing over it. From this position, the supine animal can initiate another play bout, by trying to gain access to the other animal's neck. Thus, during social play, pouncing is considered an index of play solicitation, while pinning can be regarded as the terminal component of a single play bout as well as a releaser of a prolonged play bout. Pinning and pouncing frequencies can be easily quantified and they are considered to be the most characteristic parameters of social play behavior in rats. During the social encounter, animals may also display social behaviors not directly associated with play, such as sniffing or grooming the partner's body. A pair of rats was considered as one experimental unit. […]

Data set [2] has as its system eCB-LTD of excitatory synapses onto medium spiny neurons (MSNs). Briefly: Field potential recordings of eCB-LTD in accumbens slices.
Setting [3] is: Sham adult female rats, capsazepine 5 mg/Kg i.p., 30 min before testing.

With `N#Cc1cc2[nH]c(=O)c(=O)[nH]c2cc1[N+](=O)[O-]` [CNQX], in data set [1] (CNQX 20 µM at the end of the experiments, data not shown), the “effect on the field EPSP (fEPSP)” value is reported as “specifically blocked the synaptic component without altering the nonsynaptic component”.
On to `Cc1c(C(=O)NN2CCCCC2)nn(-c2ccc(Cl)cc2Cl)c1-c1ccc(Cl)cc1` [SR141716, 5-(4-chloro-phenyl)-1-(2,4-dichlorophenyl)-4-methyl-N-1-piperidinyl-1H-pyrazole-3-carboxamide], for which the “effect on the curating actions of URB597 on social interaction” value in the data set with adult rats (adult male rats exposed in utero to WIN55,212-2, SR141716 1 mg/kg i.p. 30 min before URB597 0.1 mg/Kg i.p.) is given as “prevented the curating actions of URB597”. Also, the “effect of the antagonist by itself on social interaction” value in the data set on adult rats (adult rats, SR141716 1 mg/kg i.p.) was “did not induce effects by itself”. The “effect on LTD in mPFC” value in data set [1] (Sham adult male rats, slices preincubated for 45 min in 5 µM SR141716) is reported as “completely blocked LTD”. Moreover, in data set [1] (adult females exposed in utero to WIN55,212-2, slices preincubated for 45 min in 5 µM SR141716), the “effect on LTD of evoked EPSPs in mPFC” value is “not mediated by CB1 R receptors”. For the same compound, in data set [1] (adult male rats exposed in utero to WIN55,212-2, URB597 2 µM plus SR141716 5 µM), the “block of the URB597 rescue of eCB-LTD” value is given as “blocked the URB597 rescue”.
Take `NC(=O)c1cccc(-c2cccc(OC(=O)NC3CCCCC3)c2)c1` [URB597, (3'-(aminocarbonyl)[1,1'-biphenyl]-3-yl)-cyclohexylcarbamate]: the “social interaction (social deficits)” value with adult rats (adult male rats exposed in utero to WIN55,212-2, URB597 0.1 mg/kg i.p., 2 h before testing) is “ameliorated social deficits”. For the same compound, the “restoration of eCB-LTD in the PFC” value in data set [1] (adult male rats exposed in utero to WIN55,212-2, slices incubated with URB597 2 µM for 45-90 min before LTD induction) was “sufficient to restore eCB-LTD”.
In the case of `Cc1c(C(=O)c2cccc3ccccc23)c2cccc3c2n1[C@H](CN1CCOCC1)CO3` [WIN55,212-2], in the data set on adult rats (rat, in vivo), the “distance travelled during the test” value worked out at 3779 ± 228.8 cm. For the same compound, in the data set with adult rats (rat, in vivo, sc), the “contact with congeners (total frequency of social interaction)” value is given as “had less contact with their congeners”, the “time in social interactions” value is listed as “spent less time in social interactions”, the “total frequency of social interaction” value is on record as “no difference” and the “total time of social interaction” value is on record as “no difference”. Besides, the eCB-LTD in accumbens result in data set [2] was “robust eCB-LTD”.
On to `Oc1cc2c(cc1O)CN(C(=S)NCCc1ccc(Cl)cc1)CCC2` [capsazepine, N-[2-(4-Chlorophenyl)ethyl]-1,3,4,5-tetrahydro-7,8-dihydroxy-2H-2-benzazepine-2-carbothioamide], for which, in the data set with adult rats (setting [3]), the “frequency of social interaction” value is listed as “reduced” and the “total time of social interaction” value was “reduced”. In addition, the “effect on the curating effects of URB597 on social interaction” value with adult rats (adult rats exposed in utero to WIN55,212-2, capsazepine with URB597 0.1 mg/kg i.p.) was “did not block the curating effects of URB597”. The “effect on LTD in mPFC” value in data set [1] (Sham adult female rats, slices preincubated for 45 min in 10 µM capsazepine) was “completely blocked LTD”.
